We go through 31 compounds from US20070275961A1, “Triazolo ' 1, 5-A ! Pyrimidines and Their Use in Medicine” (VERNALIS (CAMBRIDGE) LIMITED., priority 2003, published 2007).

What all share (assay type): biochemical
Experiment [1] addresses CDK2 enzyme, complexed with cyclin A (Homo sapiens, UniProt P24941). Briefly: CDK2 cyclin dependent kinase assay, phosphorylation of synthetic peptide […] (33P-ATP filtration). The following applies: 0.1 mM ATP.
In experiment [2] the target is T1, PDK1 enzyme (Homo sapiens, UniProt O15530).
T1 sequence (O15530 1-556): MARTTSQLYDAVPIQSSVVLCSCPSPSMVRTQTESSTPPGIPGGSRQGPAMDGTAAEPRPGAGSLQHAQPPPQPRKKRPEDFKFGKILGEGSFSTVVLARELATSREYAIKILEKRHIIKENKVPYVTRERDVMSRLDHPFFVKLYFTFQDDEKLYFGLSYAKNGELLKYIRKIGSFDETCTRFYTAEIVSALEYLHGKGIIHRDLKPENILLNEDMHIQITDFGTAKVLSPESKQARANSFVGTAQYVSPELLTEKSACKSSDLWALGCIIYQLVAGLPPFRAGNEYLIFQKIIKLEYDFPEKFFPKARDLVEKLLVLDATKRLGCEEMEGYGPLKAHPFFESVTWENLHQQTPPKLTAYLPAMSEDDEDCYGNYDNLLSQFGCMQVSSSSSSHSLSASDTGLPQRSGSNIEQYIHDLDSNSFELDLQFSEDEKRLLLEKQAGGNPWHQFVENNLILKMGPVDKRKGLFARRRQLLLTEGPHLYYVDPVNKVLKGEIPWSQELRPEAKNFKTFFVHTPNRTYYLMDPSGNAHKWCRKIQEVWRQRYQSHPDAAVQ
Briefly: PDK1 3'-phosphoinositide-dependent kinase assay, phosphorylation of synthetic peptide (33P-ATP filtration). To be noted: 0.01 mM ATP, read-out: PDK1 IC50. A digest of the protocol:
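Radiometric peptide phosphorylation by PDK1 with inhibitor, 60 min at 30 °C, using 0.01 mM ATP plus 33P-γ-ATP, 0.075 mM peptide, 7.5 mM Mg acetate in Tris-HCl pH 7.5. Phosphoric acid stopped reaction; phosphorylated peptide captured on filter plates and counted by scintillation.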

Experiment [3] has as its target T2, Chk1 (Homo sapiens, UniProt O14757).
T2 sequence (O14757 1-476): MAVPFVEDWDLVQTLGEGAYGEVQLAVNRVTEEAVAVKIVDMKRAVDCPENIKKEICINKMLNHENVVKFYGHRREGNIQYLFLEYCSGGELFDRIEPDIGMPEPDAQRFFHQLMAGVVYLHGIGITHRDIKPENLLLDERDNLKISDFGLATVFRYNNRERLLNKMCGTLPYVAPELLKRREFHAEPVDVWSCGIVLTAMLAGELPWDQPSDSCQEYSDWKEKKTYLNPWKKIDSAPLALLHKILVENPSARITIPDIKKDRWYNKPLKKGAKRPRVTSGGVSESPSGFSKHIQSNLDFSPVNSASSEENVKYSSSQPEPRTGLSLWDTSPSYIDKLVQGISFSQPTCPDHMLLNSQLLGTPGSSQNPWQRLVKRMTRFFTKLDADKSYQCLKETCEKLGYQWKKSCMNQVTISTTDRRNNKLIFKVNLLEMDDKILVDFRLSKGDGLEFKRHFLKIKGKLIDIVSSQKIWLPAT
Put plainly: Chk1 kinase assay, phosphorylation of Chktide (33P-ATP filtration). The following applies: 0.01 mM ATP, read-out: Chk1 IC50. The method, boiled down: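 GST-Chk1 (11 nM) with inhibitor, 30 μM Chktide peptide, 0.01 mM ATP plus 33P-γ-ATP in 50 mM Hepes pH 7.5 with 0.1 mg/ml BSA, 40 min at 30° C. Stopped with phosphoric acid; phosphorylated peptide captured on filter plates and scintillation-counted.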

Molecules are shown by their SMILES. Like-named read-outs stand apart in the source and are kept apart here.

With `CC(C)(C)CNc1cc(Nc2ccc(S(C)(=O)=O)cc2)n2ncnc2n1` [Example 94], the IC50 in experiment [1] (Table 2) is 1.53 µM; in experiment [2] (Table 2) it was above 200 µM; in experiment [3] (Table 2), above 200 µM.

Take `CS(=O)(=O)c1ccc(Nc2cc(N[C@H]3CC[C@H](N)CC3)nc3ncnn23)cc1` [Example 84]: the figures for the IC50 in experiment [1] (Table 2), in experiment [2] (Table 2) and in experiment [3] (Table 2) were 0.25 µM, 107 µM and above 200 µM, respectively.

As for `CC(=O)Nc1cccc(Nc2cc(-c3cccc(F)c3)n3ncnc3n2)c1` [Example 131], the values for the IC50 in experiment [1] (Table 3), in experiment [2] (Table 3) and in experiment [3] (Table 3) were above 200 µM, 69.4 µM and 26.3 µM, respectively.

On to `NC(=O)c1sccc1Nc1cc(-c2ccsc2)nc2ncnn12` [Example 44], for which the IC50 in experiment [1] (Table 1) is 60.3 µM; in experiment [2] (Table 1) it was above 200 µM; in experiment [3] (Table 1), above 200 µM.

On to `Cc1cccc(-c2cc(Nc3ccc(N4CCN(C)CC4)cc3)nc3ncnn23)c1` [Example 109], for which the concentration for half-maximal inhibition (IC50) is above 200 µM in experiment [1] (Table 3), 36 µM in experiment [2] (Table 3) and 6.7 µM in experiment [3] (Table 3).

As to `OCCc1ccc(Nc2cc(-c3cccc(F)c3)n3ncnc3n2)cc1` [Example 111], the IC50 in experiment [1] (Table 3) was above 200 µM; in experiment [2] (Table 3), 52.2 µM; in experiment [3] (Table 3), 9.57 µM.

On to `Cc1cccc(-c2cc(Nc3ccc(S(N)(=O)=O)cc3)n3ncnc3n2)c1` [Example 3, 7-(4-Aminosulfonylphenylamino)-5-(3-methylphenyl)triazolo[1,5-a]pyrimidine], for which the 50% inhibitory concentration (IC50) in experiment [1] (Table 1) was 1.82 µM; in experiment [2] (Table 1) it was above 200 µM; in experiment [3] (Table 1) it was above 200 µM.

Regarding `CCOc1cc(Nc2ccc(S(N)(=O)=O)cc2)n2ncnc2n1` [Example 62], the figures for the IC50 in experiment [1] (Table 2), in experiment [2] (Table 2) and in experiment [3] (Table 2) were 13 µM, above 200 µM and above 200 µM, respectively.

Consider `NS(=O)(=O)c1ccc(Nc2cc(N[C@H]3CC[C@H](O)CC3)nc3ncnn23)cc1` [Example 68], for which the IC50 was 7.4 µM in experiment [1] (Table 2), above 200 µM in experiment [2] (Table 2) and above 200 µM in experiment [3] (Table 2).

Regarding `CS(=O)(=O)c1ccc(Nc2cc(N3CCC(C(N)=O)CC3)nc3ncnn23)cc1` [Example 89], the IC50 in experiment [1] (Table 2) was 36 µM; in experiment [2] (Table 2), above 200 µM; in experiment [3] (Table 2), above 200 µM.

For `CCN(CC)c1cc(Nc2ccc(C(N)=O)cc2)n2ncnc2n1` [Example 92], the IC50 in experiment [1] (Table 2) was 1.49 µM; in experiment [2] (Table 2) it was above 200 µM; in experiment [3] (Table 2) it was above 200 µM.

For the compound `COc1ccc(Br)cc1-c1cc(N[C@H]2CC[C@H](O)CC2)n2ncnc2n1` [Example 16], the IC50 is 48 µM in experiment [1] (Table 1), above 200 µM in experiment [2] (Table 1) and above 200 µM in experiment [3] (Table 1).

For `Clc1cc(NCc2ccccc2)n2ncnc2n1` [Example 6], the IC50 in experiment [1] (Table 1) was 85 µM; in experiment [2] (Table 1), above 200 µM; in experiment [3] (Table 1) it was above 200 µM.

Take `NC(=O)Cc1ccc(Nc2cc(-c3cccc(F)c3)n3ncnc3n2)cc1` [Example 139]: the IC50 is above 200 µM in experiment [1] (Table 3), 1.12 µM in experiment [2] (Table 3) and 3.76 µM in experiment [3] (Table 3).

Regarding `NC(=O)c1ccc(Nc2cc(-c3ccc4ccccc4c3)n3ncnc3n2)cc1` [Example 136], the IC50 is above 200 µM in experiment [1] (Table 3), 92.9 µM in experiment [2] (Table 3) and 13.7 µM in experiment [3] (Table 3).

Consider `CN(C)S(=O)(=O)c1ccc(Nc2cc(N[C@H]3CC[C@H](N)CC3)nc3ncnn23)cc1` [Example 83], for which the IC50 is 0.27 µM in experiment [1] (Table 2), 43.3 µM in experiment [2] (Table 2) and 93.4 µM in experiment [3] (Table 2).

`CC(C)COc1cc(Nc2ccc(S(N)(=O)=O)cc2)n2ncnc2n1` [Example 14]: the values for the half-maximal inhibitory concentration (IC50) in experiment [1] (Table 1), in experiment [2] (Table 1) and in experiment [3] (Table 1) were 1.85 µM, above 200 µM and above 200 µM, respectively.

As to `COc1cc(Nc2cc(Cl)nc3ncnn23)c(Cl)cc1C(=O)O` [Example 90], the concentration for half-maximal inhibition (IC50) in experiment [1] (Table 2) is 102 µM; in experiment [2] (Table 2), above 200 µM; in experiment [3] (Table 2), above 200 µM.

Turning to `CCN(CC)CCNC(=O)c1ccc(Nc2cc(-c3cccc(OCCN)c3)n3ncnc3n2)cc1` [Example 165], the IC50 in experiment [1] (Table 4) turned out to be 7.89 µM; in experiment [2] (Table 4) it was 0.81 µM; in experiment [3] (Table 4), 1.4 µM.

Take `CN(C)S(=O)(=O)c1ccc(Nc2cc(-c3cccc(F)c3)n3ncnc3n2)cc1` [Example 129]: the figures for the IC50 in experiment [1] (Table 3), in experiment [2] (Table 3) and in experiment [3] (Table 3) were above 200 µM, 30.6 µM and 12.2 µM, respectively.

Take `CN1CCN(c2cc(Nc3ccc(S(C)(=O)=O)cc3)n3ncnc3n2)CC1` [Example 63]: the IC50 in experiment [1] (Table 2) is 46.2 µM; in experiment [2] (Table 2) it was above 200 µM; in experiment [3] (Table 2), above 200 µM.

Consider `CCOC(=O)Cc1ccc(Nc2cc(-c3cccc(F)c3)n3ncnc3n2)cc1` [Example 133], for which the IC50 was above 200 µM in experiment [1] (Table 3), 2.25 µM in experiment [2] (Table 3) and 8.84 µM in experiment [3] (Table 3).

With `O[C@H]1CC[C@H](Nc2cc(Cl)nc3ncnn23)CC1` [Example 43], the IC50 in experiment [1] (Table 1), in experiment [2] (Table 1) and in experiment [3] (Table 1) was above 200 µM in each case.

In the case of `NC(=O)c1ccc(Nc2cc(-c3cccc(F)c3)n3ncnc3n2)cc1` [Example 117], the figures for the IC50 in experiment [1] (Table 3), in experiment [2] (Table 3) and in experiment [3] (Table 3) were above 200 µM, 7.3 µM and 3.05 µM, respectively.

For the compound `CC[C@H](CO)Nc1cc(Nc2ccc(S(C)(=O)=O)cc2)n2ncnc2n1` [Example 69], the 50% inhibitory concentration (IC50) was 1.82 µM in experiment [1] (Table 2), above 200 µM in experiment [2] (Table 2) and above 200 µM in experiment [3] (Table 2).

`NS(=O)(=O)c1ccc(Nc2cc(NC3CCCC3)nc3ncnn23)cc1` [Example 11]: the IC50 is 0.55 µM in experiment [1] (Table 1), above 200 µM in experiment [2] (Table 1) and above 200 µM in experiment [3] (Table 1).

Consider `NS(=O)(=O)c1ccc(Nc2cc(Cl)nc3ncnn23)cc1` [Example 1, 7-(4-Aminosulfonylphenylamino)-5-chlorotriazolol[1,5-a]pyrimidine], for which the half-maximal inhibitory concentration (IC50) in experiment [1] (Table 1) was 20.1 µM; in experiment [2] (Table 1) it was above 200 µM; in experiment [3] (Table 1), above 200 µM.

For the compound `CN(C)CCN(C)c1cc(Nc2ccc(S(C)(=O)=O)cc2)n2ncnc2n1` [Example 73], the IC50 in experiment [1] (Table 2) was 22.5 µM; in experiment [2] (Table 2) it was above 200 µM; in experiment [3] (Table 2), above 200 µM.

Regarding `NS(=O)(=O)c1ccc(Nc2cc(NCC3CCCCC3)nc3ncnn23)cc1` [Example 59], the 50% inhibitory concentration (IC50) in experiment [1] (Table 2) was determined as 3.86 µM; in experiment [2] (Table 2), 118 µM; in experiment [3] (Table 2), 117 µM.

As to `CCN(CC)c1cc(Nc2ccc(S(N)(=O)=O)cc2)n2ncnc2n1` [Example 4, 4-(5-Diethylamino-[1,2,4]triazolo[1,5-a]pyrimidine-7-ylamino)-benzenesulfonamide], the figures for the IC50 in experiment [1] (Table 1), in experiment [2] (Table 1) and in experiment [3] (Table 1) were 0.39 µM, above 200 µM and above 200 µM, respectively.

`CCN(CC)CCNC(=O)c1ccc(Nc2cc(Cl)nc3ncnn23)cc1` [Example 39]: the half-maximal inhibitory concentration (IC50) in experiment [1] (Table 1) is 42.8 µM; in experiment [2] (Table 1), above 200 µM; in experiment [3] (Table 1), above 200 µM.
